Here are results for 7 molecules from patent US4534979A, “Polyene compounds useful in the treatment of psoriasis and allergic responses” (USV Pharmaceutical Corp., priority 1984, dated 1985).

Test [1] relates to 5-Lipoxygenese pathway (LOX, Rat PMN). The test can be described thus: lipoxygenase pathway inhibition assay (14C-arachidonic acid oxidation by neutrophil homogenate). The conditions noted are these: concentration required for inhibition of the 5-Lipoxygenese pathway; read-out: LOX, Rat PMN (I50). It counts as biochemical.
The subject of test [2] is mouse epidermal cell culture. The test is described as follows: mouse epidermal cell culture, cell proliferation by uptake of tritiated thymidine into DNA. It counts as cell-based. The conditions noted are these: for percentage uptake in comparison to the standards (TRA, CRA): all time points; for activity at 12 µg/mL: Mus musculus, read-out: percentage uptake of tritiated thymidine relative to vehicle control (100%).

In test [3] the test system is mouse epidermal cell culture. The test can be described thus: mouse epidermal cell culture, anti-differentiation activity (Kreyberg staining and nuclei enumeration). The conditions noted are these: 12 ug/ml; for culture staining by the Kreyberg technique, score (maximum differentiation 10): first number of the ratio; for nuclei enumeration, score (maximum differentiation 0): second number of the ratio. The arrangement: key to culture staining by the Kreyberg technique, score (maximum differentiation 10): Kreyberg staining score; 10 = maximum differentiation; key to nuclei enumeration, score (maximum differentiation 0): nuclei enumeration score; 0 = maximum differentiation. The class given is cell-based. The text has this:
(§1) Compounds of this invention are active against various skin disorders, such as acne and psoriasis, when tested according to models considered to be predictive of the clinical condition in humans. The models used were the rhino mouse procedure (Kligman, et al., J. Investigative Dermatology 73, 354 (1979)), the rabbit comedolytic procedure (Mills O. H., Kligman A. M.: Assay of Comedolytic Agents in the Rabbit Ear, Animal Models in Dermatology; Relevance to Human Dermatopharmacology and Dermatotoxicology,edited by H. I. Maibach, New York Churchill-Livingston, 1975, pp. 176-183) and the mouse epidermal cell culture procedure (Marcelo, et al., J. Cell Biol., 79, 356 (1978). Testing was done comparatively against standard retinoids known to be effective in these disorders and against a known α-methyl retinoid (2,7-dimethyl-9-(2,6,6-trimethyl-1-cyclohexene-1-yl)-2,3,6,8-nonatetraenoic acid, referred to as DTCNA).
The ratios in the table represent scoring of two measured parameters, culture staining by the Kreyberg technique (maximum differentiation 10) and nuclei enumeration (maximum differentiation 0). Thus the highest possible anti-differentiative activity would be given by the ratio 0/10.

Another test has as its system rabbit ear comedones. The test is described as follows: rabbit comedolytic procedure (rabbit ear model). The class given is in vivo. Particulars: concentration of 0.05%, compared with TRA.
Source text: as §1
(§2) Activity equal to or greater than the standards and the known compound was shown by 2,5,9-trimethyl-11-(2,6,6-trimethyl-1-cyclohexene-1-yl)-2,4,6,8,10-undecapentaenoic acid (TTCUA).

The test system of test [4] is rhino mouse utriculi (pseudocomedones). The test is described as follows: rhino mouse procedure. The class given is in vivo. The conditions noted are these: rhino mouse model, concentration 0.05%.
Source text: as §1, §2

Setting [5] is: 72 h, 12 ug/ml, day 3 of culture exposure to drug.
Where [6] appears, read: 120 h, 12 ug/ml, day 5 of culture exposure to drug.
The mark [7] stands for this setting: 240 h, 12 ug/ml, day 10 of culture exposure to drug.

Like-named read-outs stand apart in the source and are kept apart here.

On to `CC(/C=C/c1ccc(OCc2ccccc2)cc1)=C\C=C\C(=O)O` [Example 6, 7-(4-Benzyloxyphenyl)-5-Methyl-Hepta-2,4,6-Trienoic Acid], for which, in test [1], the IC50 was 2 µM.

As for `CC(C=CC1=C(C)CCCC1(C)C)=CC=CC=C(C)C(=O)O` [DTCNA], the “percentage uptake in comparison to the standards (TRA, CRA)” value in test [2] (12 ug/ml) is “about the same”. The activity at 12 µg/mL in test [2] (setting [5]) was determined as 53%; in test [2] (setting [6]), 61%; in test [2] (setting [7]), 60%. Besides, the “culture staining by the Kreyberg technique, score (maximum differentiation 10)” value (“culture staining … (maximum differentiation 10)” for short) in test [3] (day 3) is on record as 3; in test [3] (day 6) it was 2; in test [3] (day 10), 2. For the same molecule, the “nuclei enumeration, score (maximum differentiation 0)” value in test [3] (day 3) was found to be 6; in test [3] (day 6), 6; in test [3] (day 10), 5.

With `CC1=C(/C=C/C(C)=C/C=C/C(C)=C\C(=O)O)C(C)(C)CCC1` [CRA], the “percentage uptake of tritiated thymidine relative to vehicle control (100%)” value in test [2] (12 ug/ml, day 3 of culture exposure to drug) is on record as 47%; in test [2] (12 ug/ml, day 5 of culture exposure to drug), 75%; in test [2] (12 ug/ml, day 10 of culture exposure to drug), 64%. Further, the “culture staining … (maximum differentiation 10)” value in test [3] (day 3), in test [3] (day 6) and in test [3] (day 10) was 2 in each case. Moreover, the “nuclei enumeration, score (maximum differentiation 0)” value was determined as 7 in test [3] (day 3), 7 in test [3] (day 6) and 6.5 in test [3] (day 10).

With `CC1=C(/C=C/C(C)=C/C=C/C(C)=C/C=C(\C)C(=O)O)C(C)(C)CCC1` [TTCUA, 2,5,9-trimethyl-11-(2,6,6-trimethyl-1-cyclohexene-1-yl)-2,4,6,8,10-undecapentaenoic acid], the “ability to reduce comedone size” value in the test with rabbit ear comedones is “equal to trans retinoic acid (TRA)”. For the same molecule, the “percentage uptake in comparison to the standards (TRA, CRA)” value in test [2] (12 ug/ml) was “up to five fold less”. Further, the results for the activity at 12 µg/mL in test [2] (setting [5]), in test [2] (setting [6]) and in test [2] (setting [7]) were 31%, 15% and 21%, respectively. Further, the “culture staining … (maximum differentiation 10)” value in test [3] (day 3) stood at 2; in test [3] (day 6), 0.5; in test [3] (day 10) it was 1. Further, the “nuclei enumeration, score (maximum differentiation 0)” value in test [3] (day 3) came to 6; in test [3] (day 6), 8.5; in test [3] (day 10), 7.5. The anti-differentiation activity result in test [3] (mouse epidermal cell culture) was “more active in both parameters than the two standards and high”. In addition, in test [4], the “epidermal hyperplasia of the skin” value is “moderate epidermal hyperplasia”. In test [4] (compared with TRA), the “ability to reduce the amount of horny impaction in the utriculi” value was “equal to TRA”. Further, the “ability to reduce the size of utriculi (pseudocomedones)” value in test [4] (compared with TRA) was “equal to TRA”. Also, in test [4] (versus untreated control animals), the skin wrinkling result is reported as “significantly less wrinkling”.

As for `CC\C(=C/C=C(C)/C=C/C=C(C)/C=C/C1=C(C)CCCC1(C)C)C(=O)O` [Example 3B, 5,9-Dimethyl-2-Ethyl-11-(2,6,6-Trimethyl-1-Cyclohexen-1-yl)-2,4,6,8,10-Undecapentaenoic Acid], in test [1], the IC50 amounted to 13 µM.

With `COc1cc(C)c(/C=C/C(C)=C/C=C/C(=O)O)c(C)c1C` [Example 8, 7-(4-Methoxy-2,3,6-Trimethylphenyl)-5-Methyl-Hepta-2,4,6-Trienoic Acid], the IC50 in test [1] was 10 µM.

As for `CC1=C(/C=C/C(C)=C/C=C/C(C)=C/C(=O)O)C(C)(C)CCC1` [TRA, trans retinoic acid], the IC50 in test [1] amounted to 90 µM. Moreover, the activity at 12 µg/mL in test [2] (72 h) was found to be 77%; in test [2] (120 h), 53%; in test [2] (240 h), 36%. In addition, the “culture staining … (maximum differentiation 10)” value in test [3] (day 3) came to 3; in test [3] (day 6), 3; in test [3] (day 10) it was 2. The “nuclei enumeration, score (maximum differentiation 0)” value is 5 in test [3] (day 3), 5 in test [3] (day 6) and 6 in test [3] (day 10).
